From US20230000892A1, “Solution, Lotion, Gel, and Cream for Use to Prevent Razor Bumps” (priority 2021, published 2023)

Tested on: razor bumps
Assay: proof of concept use of acne gels, creams, suspension and lotions immediately after shaving to prevent razor bumps
Type: in vivo, human
Conditions: concentration down to at least 0.75% within the gel

For clindamycin phosphate, the “adequacy of lower concentration for preventing razor bumps” value was “sufficiently adequate”.
